# Measured values reported in PubChem BioAssay (NCI).
#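 Interpolation was linear, between the two tested concentrations surrounding the appropriate level; five concentrations were tested over 48 hours in 96-well plates. The concentration for 50% growth inhibition is given as GI50. Definition used: TGI = concentration required for complete inhibition of growth.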
# Tests used:
# Experiment in all cases: DTP human tumour cell line panel, 48 h
# [1] = system: K-562 leukemia
# [2] = system: HOP-62 NSCLC
# [3] = system: UO-31 renal
# [4] = system: A549 NSCLC
# [5] = system: A498 renal
# [6] = system: OVCAR-5 ovarian
# [7] = system: CAKI-1 renal
# [8] = system: RXF 393 renal
# [9] = system: HCT-15 colon
# [10] = system: SW-620 colon
# [11] = system: HCC-2998 colon
# [12] = system: OVCAR-4 ovarian
# [13] = system: SK-OV-3 ovarian
# [14] = system: M14 melanoma
# [15] = system: RPMI-8226 leukemia
# [16] = system: NCI-H23 lung
# [17] = system: SF-295 CNS
# [18] = system: TK-10 renal
# [19] = system: NCI-H460 lung
# [20] = system: KM12 colon
# [21] = system: EKVX NSCLC
# [22] = system: SNB-19 CNS
# [23] = system: BT-549 breast
# [24] = system: ACHN renal
# [25] = system: NCI/ADR-RES ovarian
# [26] = system: UACC-257 melanoma
# [27] = system: NCI-H522 lung
# [28] = system: PC-3 prostate
# [29] = system: UACC-62 melanoma
# [30] = system: DU-145 prostate
# [31] = system: HS 578T breast
# [32] = system: SF-539 CNS
# [33] = system: SK-MEL-28 melanoma
# [34] = system: SK-MEL-5 melanoma
# [35] = system: HOP-92 NSCLC
# [36] = system: SNB-75 CNS
# [37] = system: NCI-H226 lung
# [38] = system: LOX IMVI melanoma
compound,measurement,setting,value
Cn1nc(C(=O)N2CC(CCl)c3c2cc(N)c2ccccc32)cc1NC(=O)Nc1cc(C(=O)N2CC(CCl)c3c2cc(N)c2ccccc32)nn1C (stereo unspecified),TGI,[1],> 100 µM
same,TGI,[2],69.3 µM
same,TGI,[3],65.5 µM
same,TGI,[4],> 100 µM
same,TGI,[5],54.5 µM
same,TGI,[6],> 100 µM
same,TGI,[7],6.13 µM
same,TGI,[8],0.511 µM
same,TGI,[9],> 100 µM
same,TGI,[10],> 100 µM
same,TGI,[11],> 100 µM
same,TGI,[12],> 100 µM
same,TGI,[13],> 100 µM
same,TGI,[14],5.58 µM
same,TGI,[15],> 100 µM
same,TGI,[16],0.661 µM
same,TGI,[17],> 100 µM
same,TGI,[18],> 100 µM
same,TGI,[19],> 100 µM
same,TGI,[20],> 100 µM
same,TGI,[21],> 100 µM
same,TGI,[22],2.32 µM
same,TGI,[23],0.523 µM
same,TGI,[24],> 100 µM
same,TGI,[25],> 100 µM
O=C(Cn1c[n+](CC(=O)c2ccc(-c3ccccc3)cc2)c2ccccc21)Nc1cccc2cccnc12,GI50,[26],1.28 µM
same,TGI,[26],2.78 µM
same,GI50,[1],0.639 µM
same,TGI,[1],> 100 µM
same,GI50,[27],1.53 µM
same,TGI,[27],3.25 µM
same,GI50,[28],1.03 µM
same,TGI,[28],2.29 µM
same,GI50,[29],1.4 µM
same,TGI,[29],2.84 µM
same,GI50,[3],14.2 µM
same,TGI,[3],33.3 µM
same,GI50,[4],3.02 µM
same,TGI,[4],13 µM
same,GI50,[5],1.04 µM
same,TGI,[5],4.84 µM
same,GI50,[6],1.5 µM
same,TGI,[6],2.84 µM
same,GI50,[30],2.22 µM
same,TGI,[30],5.71 µM
same,GI50,[7],2.18 µM
same,TGI,[7],6.16 µM
same,GI50,[9],9.63 µM
same,TGI,[9],30.9 µM
same,GI50,[31],1.7 µM
same,TGI,[31],4.3 µM
same,GI50,[32],1.62 µM
same,TGI,[32],3.06 µM
same,GI50,[10],1.62 µM
same,TGI,[10],3.05 µM
same,GI50,[11],1.4 µM
same,TGI,[11],2.74 µM
same,GI50,[33],1.51 µM
same,TGI,[33],2.83 µM
same,GI50,[34],1.73 µM
same,TGI,[34],3.11 µM
same,GI50,[35],0.677 µM
same,TGI,[35],2.18 µM
same,GI50,[16],1.52 µM
same,TGI,[16],3.02 µM
same,GI50,[36],1.65 µM
same,TGI,[36],4.03 µM
same,GI50,[17],1.73 µM
same,TGI,[17],3.26 µM
same,GI50,[18],2.01 µM
same,TGI,[18],3.74 µM
same,GI50,[37],2.02 µM
same,TGI,[37],7.33 µM
same,GI50,[38],1.54 µM
same,TGI,[38],3.03 µM
same,GI50,[21],1.63 µM
same,TGI,[21],4.13 µM
same,GI50,[24],3.06 µM
same,TGI,[24],10.7 µM
same,GI50,[25],18.7 µM
same,TGI,[25],64.8 µM
